Results reported in patent US20260109699A1, “AZOLE DERIVATIVES AS SHP2 INHIBITORS” (IRBM S.P.A., priority 2022, published 2026).

Key:
[1] = tested on: phospho-ERK1/2 (Thr202/Tyr204); assay: Phospho-ERK cellular assay; type: cell-based; details: Homo sapiens; KYSE-520 cells, 2 h at 37° C, TR-FRET; read-out: pERK IC50
Description: ERK phosphorylation was detected using the “Advanced phospho-ERK1/2 (Thr202/Tyr204)” TR-FRET kit (Cisbio, Cat #64AERPEG/H), following the manufacturer reagents and instructions.
Briefly, 20.000/well KYSE-520 cells (DSMZ ACC 371) were plated in 6 μL RPMI-1640 (Invitrogen) growth medium, into 384 white low-volume high base TC microplates (Greiner). After an overnight incubation, cells were treated with DMSO serial diluted compounds and incubated for 2 h at 37° C. After incubation, 2 μL/well of 4×Lysis Buffer (Cisbio 64KL1FDF), were added and incubated with cells for 30 min on gentle shaking. Finally, lysates were added with 2 μL/well of Eu cryptate (donor) and D2 (acceptor) conjugated antibodies (as provided by the Cisbio kit #64AERPEG/H) diluted 1:100 in Detection Buffer (as provided by the Cisbio kit #64AERPEG/H). Plates were then sealed and incubated at rt in the dark. After an overnight incubation, the TR-FRET signal was detected on a suitable reader (Envision, PerkinElmer).
The lower the TR-FRET signal the higher the higher the SHP2 inhibition in cells.
The activity of each compound dilution was calculated as percentage between vehicle DMSO treated cells and no cells, 0% inhibition and 100% inhibition respectively. The percentage activity is fitted against the compound dilutions with a four-parameter logistic regression. The inflection point (i.e. the concentration at which half-maximal inhibition is achieved) is the IC50.
Legend: “+” indicates IC50 equal or higher than 0.5 μM; “++” indicates IC50 less than 0.5 μM and higher or equal to 0.1 μM; “+++” indicates IC50 less than 0.1 μM.

[2] = biological target: T1, SHP-2 enzyme (Met1-Leu525), SHP2wt (Homo sapiens, UniProt Q06124); assay: SHP2 inhibition enzymatic assay; type: biochemical; details: 0.5 nM SHP-2 activated by 500 nM IRS1 peptide, 75 μM DiFMUP substrate
T1 construct: synthetized by Origene, Met1-Leu525, cat #TP750155; purchased Origene TP750155
T1 sequence (Q06124 1-525): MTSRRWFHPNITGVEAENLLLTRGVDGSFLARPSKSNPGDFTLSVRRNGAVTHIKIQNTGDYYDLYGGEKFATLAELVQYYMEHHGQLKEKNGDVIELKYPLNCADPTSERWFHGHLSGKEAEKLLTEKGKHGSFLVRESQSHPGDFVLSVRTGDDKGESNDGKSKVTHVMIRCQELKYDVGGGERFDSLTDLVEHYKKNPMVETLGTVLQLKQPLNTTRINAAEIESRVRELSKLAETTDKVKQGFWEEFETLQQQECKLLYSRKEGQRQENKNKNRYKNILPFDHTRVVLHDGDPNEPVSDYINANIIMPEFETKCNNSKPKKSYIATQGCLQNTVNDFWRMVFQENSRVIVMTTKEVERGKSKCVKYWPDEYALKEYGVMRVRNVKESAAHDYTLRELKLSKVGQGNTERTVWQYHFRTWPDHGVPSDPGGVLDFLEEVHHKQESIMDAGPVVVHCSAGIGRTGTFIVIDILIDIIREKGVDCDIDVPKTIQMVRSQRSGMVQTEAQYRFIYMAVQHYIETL
Description: The assay was performed as described in YP Chen et al, Nature (535) 2016. Assay volume of 20 μL/well was assembled in 384 well black polystyrene low-binding microplates (Greiner), using the following buffer: 60 mM HEPES pH 7.2, 75 mM NaCl, 75 mM KCl, 1 mM EDTA pH 8, 0.05% tween-20, 5 mM DTT. The SHP-2 enzyme (synthetized by Origene, Met1-Leu525, cat #TP750155) was used at a final concentration of 0.5 nM. The enzyme was activated by 500 nM IRS1 peptide (sequence: H2N-LN(pY)IDLDLV(dPEG8)LST(pY)ASINFQK-amide; Wang et al., iScience 25,104009, Apr. 15, 2022, https://doi.org/10.1016/j.isci.2022.104009) and incubated with 75 μM DiFMUP (Sigma) as substrate.
Briefly, DMSO serially diluted testing compounds were transferred to the bottom of the assay plate. SHP2 was then added together with the IRS1 peptide 30 min post incubation, the DiFMUP substrate was added to the reaction and incubated 30 min at rt. Finally 5 μL of 160 μM bpV (potassium bisperoxo[1,10-phenanthroline]oxovanadate [V], Sigma) were added to stop and quench the reaction. The fluorescence was detected by a microplate reader (Envision, PerkinElmer) according to the DiFMUP excitation and emission wavelength. The lower the fluorescence the higher the SHP2 inhibition.
The activity of each compound dilution was calculated as percentage of inhibition between vehicle (DMSO, 0% inhibition) and no enzyme (100% inhibition). The percentage inhibition is fitted against the compound dilutions with a four-parameter logistic regression. The inflection point (i.e. the concentration at which half-maximal inhibition is achieved) is the IC50.
Legend: A indicates IC50 less or equal to 0.05 μM; B indicates IC50 greater than 0.05 μM and lower or equal to 0.3 μM.

Row | SMILES | IC50 [1] | IC50 [2]
1 | N[C@@H]1c2ccnn2CC12CCN(c1cnc(Sc3ccncc3)cn1)CC2 [Example 25, (S)-1-(5-(pyridin-4-ylthio)pyrazin-2-yl)-4′H,6′H-spiro[piperidine-4,5′-pyrrolo[1,2-b]pyrazol]-4′-amine] | < 100 nM | ≤ 50 nM
2 | Cc1ccccc1Sc1cnc(N2CCC3(CC2)Cn2nccc2[C@H]3N)cn1 [Example 26, (S)-1-(5-(o-tolylthio)pyrazin-2-yl)-4′H,6′H-spiro[piperidine-4,5′-pyrrolo[1,2-b]pyrazol]-4′-amine] | < 100 nM | ≤ 50 nM
3 | CC(C)c1ccccc1Sc1cnc(N2CCC3(CC2)Cn2nccc2[C@H]3N)cn1 [Example 27, (S)-1-(5-((2-isopropylphenyl)thio)pyrazin-2-yl)-4′H,6′H-spiro[piperidine-4,5′-pyrrolo[1,2-b]pyrazol]-4′-amine] | < 100 nM | ≤ 50 nM
4 | N[C@@H]1c2cccn2CC12CCN(c1cnc(Sc3cccc(Cl)c3Cl)cn1)CC2 [Example 28, (S)-1-(5-((2,3-dichlorophenyl)thio)pyrazin-2-yl)-1′H,3′H-spiro[piperidine-4,2′-pyrrolizin]-1′-amine] | < 100 nM | ≤ 50 nM
5 | N[C@@H]1c2c(F)ccn2CC12CCN(c1cnc(Sc3cccc(Cl)c3Cl)cn1)CC2 [Example 29, (S)-1-(5-((2,3-dichlorophenyl)thio)pyrazin-2-yl)-7′-fluoro-1′H,3′H-spiro[piperidine-4,2′-pyrrolizin]-1′-amine] | < 100 nM | ≤ 50 nM
6 | N[C@@H]1c2ccnn2CC12CCN(c1cnc(Sc3cccc(F)c3Cl)cn1)CC2 [Example 30, (S)-1-(5-((2-chloro-3-fluorophenyl)thio)pyrazin-2-yl)-4′H,6′H-spiro[piperidine-4,5′-pyrrolo[1,2-b]pyrazol]-4′-amine] | < 100 nM | ≤ 50 nM
7 | N[C@@H]1c2ccnn2CC12CCN(c1cnc(-c3cccc(Cl)c3Cl)cn1)CC2 [Example 31, (S)-1-(5-(2,3-dichlorophenyl)pyrazin-2-yl)-4′H,6′H-spiro[piperidine-4,5′-pyrrolo[1,2-b]pyrazol]-4′-amine] | > 500 nM | ≤ 50 nM
8 | N[C@@H]1c2ccnn2CC12CCN(c1cnc(Sc3ccc(F)cc3F)cn1)CC2 [Example 32, (S)-1-(5-((2,4-difluorophenyl)thio)pyrazin-2-yl)-4′H,6′H-spiro[piperidine-4,5′-pyrrolo[1,2-b]pyrazol]-4′-amine] | < 100 nM | ≤ 50 nM
9 | Cc1c(Cl)cccc1Sc1cnc(N2CCC3(CC2)Cn2nccc2[C@H]3N)cn1 [Example 33, (S)-1-(5-((3-chloro-2-methylphenyl)thio)pyrazin-2-yl)-4′H,6′H-spiro[piperidine-4,5′-pyrrolo[1,2-b]pyrazol]-4′-amine] | < 100 nM | ≤ 50 nM
10 | N[C@@H]1c2ccnn2CC12CCN(c1cnc(Sc3ccc(F)cc3Cl)cn1)CC2 [Example 34, (S)-1-(5-((2-chloro-4-fluorophenyl)thio)pyrazin-2-yl)-4′H,6′H-spiro[piperidine-4,5′-pyrrolo[1,2-b]pyrazol]-4′-amine] | < 100 nM | ≤ 50 nM
11 | Cc1cccc(Sc2cnc(N3CCC4(CC3)Cn3nccc3[C@H]4N)cn2)c1Cl [Example 35, (S)-1-(5-((2-chloro-3-methylphenyl)thio)pyrazin-2-yl)-4′H,6′H-spiro[piperidine-4,5′-pyrrolo[1,2-b]pyrazol]-4′-amine] | < 100 nM | ≤ 50 nM
12 | COc1cccc2c(Sc3cnc(N4CCC5(CC4)Cn4nccc4[C@H]5N)cn3)ccnc12 [Example 37, (S)-1-(5-((8-methoxyquinolin-4-yl)thio)pyrazin-2-yl)-4′H,6′H-spiro[piperidine-4,5′-pyrrolo[1,2-b]pyrazol]-4′-amine] | < 100 nM | ≤ 50 nM
13 | N[C@@H]1c2ccnn2CC12CCN(c1cnc(Sc3cccc4c3CCO4)cn1)CC2 [Example 38, (S)-1-(5-((2,3-dihydrobenzofuran-4-yl)thio)pyrazin-2-yl)-4′H,6′H-spiro[piperidine-4,5′-pyrrolo[1,2-b]pyrazol]-4′-amine] | 100 to 500 nM | ≤ 50 nM
14 | Cc1cc(Cl)ccc1Sc1cnc(N2CCC3(CC2)Cn2nccc2[C@H]3N)cn1 [Example 40, (S)-1-(5-((4-chloro-2-methylphenyl)thio)pyrazin-2-yl)-4′H,6′H-spiro[piperidine-4,5′-pyrrolo[1,2-b]pyrazol]-4′-amine] | 100 to 500 nM | ≤ 50 nM
15 | N[C@@H]1c2ccnn2CC12CCN(c1cnc(Sc3ccccc3C(F)(F)F)cn1)CC2 [Example 41, (S)-1-(5-((2-(trifluoromethyl)phenyl)thio)pyrazin-2-yl)-4′H,6′H-spiro[piperidine-4,5′-pyrrolo[1,2-b]pyrazol]-4′-amine] | < 100 nM | ≤ 50 nM
16 | N[C@@H]1c2ccnn2CC12CCN(c1cnc(Sc3ccc4c(c3)CCO4)cn1)CC2 [Example 42, (S)-1-(5-((2,3-dihydrobenzofuran-5-yl)thio)pyrazin-2-yl)-4′H,6′H-spiro[piperidine-4,5′-pyrrolo[1,2-b]pyrazol]-4′-amine] | < 100 nM | ≤ 50 nM
17 | N#Cc1cccc(Sc2cnc(N3CCC4(CC3)Cn3nccc3[C@H]4N)cn2)c1C(F)(F)F [Example 43, (S)-3-((5-(4′-amino-4′H,6′H-spiro[piperidine-4,5′-pyrrolo[1,2-b]pyrazol]-1-yl)pyrazin-2-yl)thio)-2-(trifluoromethyl)benzonitrile] | < 100 nM | ≤ 50 nM
18 | N[C@@H]1c2ccnn2CC12CCN(c1cnc(Sc3cccc4c3CCC4)cn1)CC2 [Example 46, (S)-1-(5-((2,3-dihydro-1H-inden-4-yl)thio)pyrazin-2-yl)-4′H,6′H-spiro[piperidine-4,5′-pyrrolo[1,2-b]pyrazol]-4′-amine] | < 100 nM | ≤ 50 nM
19 | Cc1cccc(Sc2cnc(N3CCC4(CC3)Cn3nccc3[C@H]4N)cn2)c1C [Example 47, (S)-1-(5-((2,3-dimethylphenyl)thio)pyrazin-2-yl)-4′H,6′H-spiro[piperidine-4,5′-pyrrolo[1,2-b]pyrazol]-4′-amine] | < 100 nM | ≤ 50 nM
20 | N[C@@H]1c2ccnn2CC12CCN(c1cnc(Sc3cc(F)ccc3F)cn1)CC2 [Example 48, (S)-1-(5-((2,5-difluorophenyl)thio)pyrazin-2-yl)-4′H,6′H-spiro[piperidine-4,5′-pyrrolo[1,2-b]pyrazol]-4′-amine] | < 100 nM | ≤ 50 nM
21 | N[C@@H]1c2ccnn2CC12CCN(c1cnc(Sc3ccc(F)c(F)c3F)cn1)CC2 [Example 49, (S)-1-(5-((2,3,4-trifluorophenyl)thio)pyrazin-2-yl)-4′H,6′H-spiro[piperidine-4,5′-pyrrolo[1,2-b]pyrazol]-4′-amine] | < 100 nM | ≤ 50 nM
